Blank lines part the entries; values can stand above or below the molecule they belong to.
How the values were obtained:
Format in all cases: functional
Homo sapiens = species: Homo sapiens; assay: The compound was tested in vitro for its anti-platelet activity against human platelets in presence of ADP
Canis familiaris [1] = assay: Tested ex vivo for its inhibitory activity at 1 hr against dogs after oral administration of 3.2 mg/Kg dose to evaluate bioavailability; conditions: Canis lupus familiaris
Canis familiaris [2] = assay: Tested ex vivo for its inhibitory activity at 3 hr against dogs after oral administration of 1 mg/Kg dose to evaluate bioavailability; conditions: Canis lupus familiaris
Canis familiaris [3] = assay: Tested ex vivo for its inhibitory activity at 3 hr against dogs after oral administration of 10 mg/Kg dose to evaluate bioavailability; conditions: Canis lupus familiaris
Canis familiaris [4] = assay: Tested ex vivo for its inhibitory activity at 6 hr against dogs after oral administration of 10 mg/Kg dose to evaluate bioavailability; conditions: Canis lupus familiaris
Canis familiaris [5] = assay: Tested ex vivo for its inhibitory activity at 6 hr against dogs after oral administration of 3.2 mg/Kg dose to evaluate bioavailability; conditions: Canis lupus familiaris
Canis familiaris [6] = assay: Tested ex vivo for its inhibitory activity at 8 hr against dogs after oral administration of 10 mg/Kg dose to evaluate bioavailability; conditions: Canis lupus familiaris
Canis familiaris [7] = assay: Tested ex vivo for its inhibitory activity at 8 hr against dogs after oral administration of 3.2 mg/Kg dose to evaluate bioavailability; conditions: Canis lupus familiaris
Canis familiaris [8] = assay: Tested ex vivo for its inhibitory activity at 1 hr against dogs after oral administration of 1 mg/Kg dose to evaluate bioavailability; conditions: Canis lupus familiaris
Canis familiaris [9] = species: Canis familiaris; assay: The compound was tested in vitro for its anti-platelet activity against dog platelets in presence of ADP; conditions: Canis lupus familiaris
Cavia porcellus [10] = assay: Tested ex vivo for its inhibitory activity at 2 hr against guinea pig after oral administration of 0.32 mg/Kg dose to evaluate bioavailability
Cavia porcellus [11] = assay: Tested ex vivo for its inhibitory activity at 2 hr against guinea pig after oral administration of 1 mg/Kg dose to evaluate bioavailability
Cavia porcellus [12] = assay: Tested ex vivo for its inhibitory activity at 3 hr against guinea pig after oral administration of 1 mg/Kg dose to evaluate bioavailability
Cavia porcellus [13] = assay: Tested ex vivo for its inhibitory activity at 1 hr against guinea pig after oral administration of 0.1 mg/Kg dose to evaluate bioavailability
Cavia porcellus [14] = assay: Tested ex vivo for its inhibitory activity at 1 hr against guinea pig after oral administration of 0.32 mg/Kg dose to evaluate bioavailability
Cavia porcellus [15] = assay: Tested ex vivo for its inhibitory activity at 1 hr against guinea pig after oral administration of 1 mg/Kg dose to evaluate bioavailability
Rattus norvegicus [16] = assay: Tested ex vivo for its inhibitory activity at 0.5 hr against rats after oral administration of 3.2 mg/Kg dose to evaluate bioavailability
Rattus norvegicus [17] = assay: Tested ex vivo for its inhibitory activity at 1 h against rats after oral administration of 3.2 mg/Kg dose to evaluate bioavailability
Rattus norvegicus [18] = assay: Tested ex vivo for its inhibitory activity at 2 h against rats after oral administration of 3.2 mg/Kg dose to evaluate bioavailability
[19] = The ratio of anti-platelet activity against dog platelets to that of human platelets was determined
Canis familiaris [20] = assay: Tested ex vivo for its inhibitory activity at 3 hr against dogs after oral administration of 3.2 mg/Kg dose to evaluate bioavailability; conditions: Canis lupus familiaris
Rattus norvegicus [21] = species: Rattus norvegicus; assay: The compound was tested for its stability in intestinal juice of rats after 0 h
Rattus norvegicus [22] = species: Rattus norvegicus; assay: The compound was tested for its stability in intestinal juice of rats after 2 h
Rattus norvegicus [23] = species: Rattus norvegicus; assay: The compound was tested for its stability in intestinal juice of rats after 5 h
Canis familiaris [24] = assay: Tested ex vivo for its inhibitory activity at 1 hr against dogs after oral administration of 10 mg/Kg dose to evaluate bioavailability; conditions: Canis lupus familiaris
Canis familiaris [25] = assay: Tested ex vivo for its inhibitory activity at 1 hr against dogs after oral administration of 32 mg/Kg dose to evaluate bioavailability; conditions: Canis lupus familiaris
Canis familiaris [26] = assay: Tested ex vivo for its inhibitory activity at 2 hr against dogs after oral administration of 3.2 mg/Kg dose to evaluate bioavailability; conditions: Canis lupus familiaris
Canis familiaris [27] = assay: Tested ex vivo for its inhibitory activity at 2 h against dogs after oral administration of 32 mg/Kg dose to evaluate bioavailability; conditions: Canis lupus familiaris
Canis familiaris [28] = assay: Tested ex vivo for its inhibitory activity at 3 hr against dogs after oral administration of 32 mg/Kg dose to evaluate bioavailability; conditions: Canis lupus familiaris
Cavia porcellus [29] = assay: Tested ex vivo for its inhibitory activity at 3 hr against guinea pig after oral administration of 3.2 mg/Kg dose to evaluate bioavailability
Cavia porcellus [30] = assay: Tested ex vivo for its inhibitory activity at 6 hr against guinea pig after oral administration of 3.2 mg/Kg dose to evaluate bioavailability
Cavia porcellus [31] = assay: Tested ex vivo for its inhibitory activity at 1 hr against guinea pig after oral administration of 3.2 mg/Kg dose to evaluate bioavailability
Rattus norvegicus [32] = assay: Tested ex vivo for its inhibitory activity at 0.5 hr against rats after oral administration of 10 mg/Kg dose to evaluate bioavailability
Rattus norvegicus [33] = assay: Tested ex vivo for its inhibitory activity at 0.5 hr against rats after oral administration of 20 mg/Kg dose to evaluate bioavailability
Rattus norvegicus [34] = assay: Tested ex vivo for its inhibitory activity at 1 hr against rats after oral administration of 10 mg/Kg dose to evaluate bioavailability
Rattus norvegicus [35] = assay: Tested ex vivo for its inhibitory activity at 1 hr against rats after oral administration of 20 mg/Kg dose to evaluate bioavailability
Rattus norvegicus [36] = assay: Tested ex vivo for its inhibitory activity at 2 hr against rats after oral administration of 10 mg/Kg dose to evaluate bioavailability
Rattus norvegicus [37] = species: Rattus norvegicus; assay: Tested for its stability in intestinal juice of rats after 0 h
Rattus norvegicus [38] = species: Rattus norvegicus; assay: Tested for its stability in intestinal juice of rats after 2 h
Rattus norvegicus [39] = species: Rattus norvegicus; assay: Tested for its stability in intestinal juice of rats after 5 h
Rattus norvegicus [40] = species: Rattus norvegicus; assay: The compound was tested for its stability in intestinal juice of rats after 7 h
Rattus norvegicus [41] = assay: Tested ex vivo for its inhibitory activity at 2 hr against rats after oral administration of 20 mg/Kg dose to evaluate bioavailability

SMILES: CC(C)Oc1ccc(CCNC(=O)[C@H](CC(=O)O)NC(=O)CCCOc2ccc(C(=N)N)cc2)cc1
- IC50 (Homo sapiens): 370 nM

SMILES: CCOc1ccc(CCNC(=O)[C@H](CC(=O)O)NC(=O)CCCOc2ccc(C(=N)N)cc2)cc1
- IC50 (Homo sapiens): 340 nM

SMILES: COc1ccc(CCNC(=O)[C@H](CC(=O)O)NC(=O)CCCOc2ccc(C(=N)N)cc2)cc1
- IC50 (Homo sapiens): 440 nM
- Remains (Rattus norvegicus [21]): 100%
- Remains (Rattus norvegicus [22]): 100.5%
- Remains (Rattus norvegicus [23]): 105.7%

SMILES: CC(C)[C@H](NC(=O)[C@H](CC(=O)O)NC(=O)CCCOc1ccc(C(=N)N)cc1)C(=O)NC1CCCCC1
- IC50 (Homo sapiens): 210 nM

SMILES: CC(C)C(C)NC(=O)[C@H](CC(=O)O)NC(=O)CCCOc1ccc(C(=N)N)cc1 (stereo not given in full)
- IC50 (Homo sapiens): 1400 nM

SMILES: CCN(CC)C(=O)[C@@H](NC(=O)[C@H](CC(=O)O)NC(=O)CCCOc1ccc(C(=N)N)cc1)C(C)C
- IC50 (Homo sapiens): 250 nM

SMILES: COc1ccc(CCNC(=O)[C@H](CC(=O)O)NC(=O)CCCOc2ccc(C(=N)N)cc2)cc1OC
- IC50 (Homo sapiens): 540 nM

SMILES: CC(C)[C@H](NC(=O)[C@H](CC(=O)O)NC(=O)CCCOc1ccc(C(=N)N)cc1)C(N)=O
- IC50 (Homo sapiens): 670 nM
- Remains (Rattus norvegicus [21]): 100%
- Remains (Rattus norvegicus [22]): 105.6%
- Remains (Rattus norvegicus [23]): 107.3%

SMILES: CC(C)CNC(=O)[C@H](CC(=O)O)NC(=O)CCCOc1ccc(C(=N)N)cc1
- IC50 (Homo sapiens): 1200 nM
- Remains (Rattus norvegicus [21]): 100%
- Remains (Rattus norvegicus [22]): 80.4%
- Remains (Rattus norvegicus [23]): 83.6%
- Remains (Rattus norvegicus [40]): 86.2%

Stronger by IC50 (Homo sapiens), values ahead:

- IC50 (Canis familiaris [9]): 110 nM
- IC50 (Homo sapiens): 30 nM
SMILES: CC(C)[C@H](NC(=O)[C@H](CC(=O)O)NC(=O)CCCOc1ccc(C(=N)N)cc1)C(=O)N1CCS(=O)(=O)CC1
- inhibition in vivo at 3.2 mg/kg (Canis familiaris [1]): 85%
- inhibition in vivo at 1 mg/kg (Canis familiaris [2]): 11%
- inhibition in vivo at 10 mg/kg (Canis familiaris [3]): 80%
- inhibition in vivo at 10 mg/kg (Canis familiaris [4]): 65%
- inhibition in vivo at 3.2 mg/kg (Canis familiaris [5]): 46%
- inhibition in vivo at 10 mg/kg (Canis familiaris [6]): 45%
- inhibition in vivo at 3.2 mg/kg (Canis familiaris [7]): 0%
- inhibition in vivo at 1 mg/kg (Canis familiaris [8]): 40%
- inhibition in vivo at 0.32 mg/kg (Cavia porcellus [10]): 50%
- inhibition in vivo at 1 mg/kg (Cavia porcellus [11]): 59%
- inhibition in vivo at 1 mg/kg (Cavia porcellus [12]): 21%
- inhibition in vivo at 0.1 mg/kg (Cavia porcellus [13]): 49%
- inhibition in vivo at 0.32 mg/kg (Cavia porcellus [14]): 69%
- inhibition in vivo at 1 mg/kg (Cavia porcellus [15]): 100%
- inhibition in vivo at 3.2 mg/kg (Rattus norvegicus [16]): 76%
- inhibition in vivo at 3.2 mg/kg (Rattus norvegicus [17]): 97%
- inhibition in vivo at 3.2 mg/kg (Rattus norvegicus [18]): 44%
- Ratio [19]: 3.7
- inhibition in vivo at 3.2 mg/kg (Canis familiaris [20]): 65%

- IC50 (Canis familiaris [9]): 140 nM
- IC50 (Homo sapiens): 79 nM
SMILES: CC(C)[C@H](NC(=O)[C@H](CC(=O)O)NC(=O)CCCOc1ccc(C(=N)N)cc1)C(=O)N1CCOCC1
- inhibition in vivo at 3.2 mg/kg (Canis familiaris [1]): 53%
- inhibition in vivo at 10 mg/kg (Canis familiaris [3]): 75%
- inhibition in vivo at 10 mg/kg (Canis familiaris [4]): 59%
- inhibition in vivo at 3.2 mg/kg (Canis familiaris [5]): 20%
- inhibition in vivo at 10 mg/kg (Canis familiaris [24]): 96%
- inhibition in vivo at 3.2 mg/kg (Rattus norvegicus [16]): 95%
- inhibition in vivo at 3.2 mg/kg (Rattus norvegicus [17]): 97%
- inhibition in vivo at 3.2 mg/kg (Rattus norvegicus [18]): 95%
- Ratio [19]: 1.8
- inhibition in vivo at 3.2 mg/kg (Canis familiaris [20]): 45%

- IC50 (Canis familiaris [9]): 380 nM
- IC50 (Homo sapiens): 100 nM
SMILES: CC(C)[C@H](NC(=O)[C@H](CC(=O)O)NC(=O)CCCOc1ccc(C(=N)N)cc1)C(=O)O
- inhibition in vivo at 3.2 mg/kg (Canis familiaris [1]): 19%
- inhibition in vivo at 32 mg/kg (Canis familiaris [25]): 58%
- inhibition in vivo at 3.2 mg/kg (Canis familiaris [26]): 30%
- inhibition in vivo at 32 mg/kg (Canis familiaris [27]): 29%
- inhibition in vivo at 32 mg/kg (Canis familiaris [28]): 18%
- inhibition in vivo at 1 mg/kg (Cavia porcellus [12]): 34%
- inhibition in vivo at 3.2 mg/kg (Cavia porcellus [29]): 64%
- inhibition in vivo at 3.2 mg/kg (Cavia porcellus [30]): 19%
- inhibition in vivo at 0.32 mg/kg (Cavia porcellus [14]): 70%
- inhibition in vivo at 1 mg/kg (Cavia porcellus [15]): 99%
- inhibition in vivo at 3.2 mg/kg (Cavia porcellus [31]): 100%
- inhibition in vivo at 10 mg/kg (Rattus norvegicus [32]): 24%
- inhibition in vivo at 20 mg/kg (Rattus norvegicus [33]): 45%
- inhibition in vivo at 10 mg/kg (Rattus norvegicus [34]): 18%
- inhibition in vivo at 20 mg/kg (Rattus norvegicus [35]): 33%
- inhibition in vivo at 10 mg/kg (Rattus norvegicus [36]): 4%
- Remains (Rattus norvegicus [37]): 100%
- Remains (Rattus norvegicus [38]): 63.8%
- Remains (Rattus norvegicus [39]): 45.1%
- Remains (Rattus norvegicus [21]): 100%
- Remains (Rattus norvegicus [22]): 61.3%
- Remains (Rattus norvegicus [23]): 25.6%
- Remains (Rattus norvegicus [40]): 19.2%
- inhibition in vivo at 3.2 mg/kg (Canis familiaris [20]): 10%
- inhibition in vivo at 20 mg/kg (Rattus norvegicus [41]): 20%

- IC50 (Homo sapiens): 180 nM
SMILES: CC(C)[C@H](NC(=O)[C@H](CC(=O)O)NC(=O)CCCOc1ccc(C(=N)N)cc1)C(=O)N1CCN(C)CC1
